In patent US11691992B2 (Anacor Pharmaceuticals, Inc., priority 2017, dated 2023) one finds IC50 data, which are given here for eight molecules.

Where two headings read alike, the source gives them in different places.

Type in all cases: cell-based
Assay [1] deals with luciferase-expressing L. major parasites developing intracellularly inside RAW 264.7 macrophages. Description: Leishmania major intracellular amastigote assay in RAW 264.7 macrophages (luciferase). Particulars: RAW264.7, 96 hours, read-out: IC50: I Org. intracellular amastigote Growth L. major, 4 d. The text has this: Example 107. Assay for Leishmania major Intracellular Amastigote Assay in RAW 264.7 Macrophages
The intracellular amastigote assay is a microtiter plate drug sensitivity assay that uses the activity of luciferase as a measure of proliferation of luciferase-expressing L. major parasites developing intracellularly inside RAW 264.7 macrophages in the presence of antileishmanial drugs or experimental compounds. (Buckner, F. S., and A. J. Wilson. Am J Prop Med Hyg, 2005, 72(5): 600-605.) As the activity of luciferase and its associated luminescence after addition of the substrate, luciferin, is relative to parasite growth, a test compound that inhibits the growth of the parasite will result in a lower luminescence. The luciferase-expressing L. major parasite used in this assay is genetically modified by adding the luciferase coding region to the pLEXSY-hyg2 vector (Jena Biosciences). The luciferase expression construct was created by digesting the luciferase coding region (1.66 kbp) of pGL3-Basic (Promega) by using two restriction enzymes, NcoI/EagI, followed by electrophoretic separation of the luciferase coding region on a 1% agarose gel. The luciferase coding region was then ligated into pLEXSY-hyg2 vector (Jena Biosciences) which had previously been digested with NcoI/NotI. The vector was linearized with SwaI and subsequently gel purified prior to transfection into L. major parasites. Transfections were carried out by electroporation at 480V, 13Ω, and 500 μF (0.4 mL of 1×10^8 parasites/mL, and 0.1 mL of 10 μg DNA). Selection for transfectants was then carried out using hygromycin B (100 μg/mL). RAW 264.7 macrophages were cultured in DMEM media (ATCC Cat #30-2002) supplemented with heat-inactivated 10% FBS (Invitrogen Cat #10438-034). To begin the assay, macrophages were harvested from culture by removing all spent media, adding in 10 mL fresh media, scraping cells, and counted using Trypan Blue. The cells were resuspended in DMEM/10% HIFBS media at 2.0×10^5 cells/mL, and then dispensed in a volume of 50 μL to yield a final concentration of 10,000 macrophages/well in 384 well tissue-culture treated sterile white plates (Nunc Cat #12-565-343) using a Tecan EVO Freedom robotics system. The plates were then incubated at 37° C. overnight in 5% CO2 atmosphere for 24 hours. After overnight incubation, the media was removed from each well using the Tecan EVO Freedom robot, and L. major promastigotes were added to each well and allowed to invade the RAW macrophages. Promastigotes were cultured in Schneider's medium (Invitrogen Cat #11720-067) supplemented with 20% heat inactivated FBS. Metacyclic stage promastigotes provide the best invasion for this assay, and cultures should be grown to increase the percentage of metacyclic promastigotes for best results. Promastigotes were harvested from culture, counted, suspended at 2×10^6 promastigotes/mL in DMEM/HIFBS media, and 100,000 promastigotes were dispensed per well in a volume of 50 μL. After overnight incubation, the media was removed from each well using the Tecan Freedom EVO robot, and each well was subsequently washed three times with 40 μF of fresh DMEM/HIFBS medium to remove all extracellular promastigotes. After the third wash, 69.2 μF of DMEM/HIFBS medium was added to each well using the Tecan EVO Freedom robot. Drug plates were prepared with the Tecan EVO Freedom using sterile 96 well plates containing twelve duplicate two-fold serial dilutions of each test compound suspended in DMSO. 7.8 μF of diluted test compound was added to the 69.2 μF of media present in each well providing a 10 fold final dilution of compound. The final concentration range tested was 0.5 to 10,000 ng/ml for all assays. The plates were next incubated at 37° C. and 5% CO2 for 96 hours. After 96 hours of incubation, 7.5 μF of a luciferin solution (Caliper Fife Science) diluted to 150 μg/mF was added to each well, and the plates were incubated for 30 minutes at 37° C., in the dark. […]

The test system of assay [2] is TdTomato-modified T. cruzi (CL strain) in Vero cells. Description: In vitro IC50 measurement of T. cruzi amastigote killing using TdTomato-modified T. cruzi (CL strain). The note with it: Trypanosoma cruzi, 72 h, fluorescence, read-out: IC50: I Org. amastigote Growth T. cruzi CL TdTomato, 3 d. The procedure:
Example 112. In Vitro IC50 Measurement of T. cruzi Amastigote Killing Using TdTomato-Modified T. cruzi (CL Strain)
The T. cruzi parasites used in this assay were genetically modified to express Td Tomato fluorescent protein. Vero cells (African green monkey kidney epithelial cells) were harvested from continuous cultures using trypsin and added to the inner 60 wells of 96-well Greiner Bio One plates (plate catalog #655090) at 200 ul/well of […]. Cells were allowed to adhere for 1 h before infection with T. cruzi. T. cruzi for infection were harvested from previously-infected Vero cells, washed, pelleted and resuspended at 5×10^6/mL. 50 uL of parasites were added to each well containing Vero cells. Compounds were prepared from 5 mM stock concentrations in DMSO to final concentrations in wells ranging from 5 uM to 5 nM. Wells were provided for negative controls, lacking compounds. Plates were placed into a 37° C. incubator for 20 min, then a “Day 0” reading was taken on a Synergy H4 plate reader to record initial fluorescence levels, at 544 (excitation) and 612 nm (emission). 96-well plates were placed in Tupperware containers with wet paper towels and incubated at 37° C. incubator for 72 h. After 72 h plates were reread (Day 3 reading) and data analyzed using Excel and/or Graphpad software. Day 0 fluorescence was subtracted from Day 3 to remove input parasite fluorescence. Growth curves are generated and 50% and 90% inhibitory concentrations are determined by nonlinear regression analysis.

Assay [3] concerns IL3000 T. congolense (drug sensitive) strain. Description: In vitro Alamar Blue 72 h drug sensitivity assay for T. congolense. The note with it: Trypanosoma congolense; bloodstream form, 69 h + 3 h resazurin, 34° C.; classes A-C; read-out: IC50: I Org. Growth T. congolense IL-3000, 3 d. The procedure:
Example 106. In Vitro Alamar Blue 72 h Drug Sensitivity Assay for T. congolense
Compounds were tested in vitro for chemotherapeutic potency against the IL3000 T. congolense (drug sensitive) strain, using the Alamar Blue assay with several modifications. Test compounds were prepared as 10 mg/mL DMSO stocks for each assay run. Compounds were assayed in at least three separate, independent test runs and an 11-point dilution curve was used to determine the IC50 values. Bloodstream form trypanosomes were supported in HMI media containing 20% bovine serum and were incubated with test compounds for 69 h at 34° C. in a humidified atmosphere containing 5% CO2. Thereafter, 10 μL of Resazurin dye (12.5 mg in 100 mL of phosphate buffered saline, Sigma-Aldrich, Buchs, Switzerland) were added for an additional 3 h. Plates were then read using a fluorescent plate reader (Spectramax, Gemini XS, Bucher Biotec, Basel, Switzerland) using an excitation wavelength of 536 nm and an emission wavelength of 588 nm. Data points were averaged to generate sigmoidal dose-response curves and IC50 values were determined using Softmax Pro 5.2 software.
A general note: The colour change of resazurin is a common sign of viable cells or microbes.

For assay [4], the system named is bloodstream forms of T. b. rhodesiense STIB 900. Description: T. brucei rhodesiense STIB 900 growth inhibition assay. Particulars: Trypanosoma brucei, 72 h. The text has this:
Example 110. T. brucei rhodesiense STIB 900 Growth Inhibition Assay
The parasite strain used in this assay was isolated in 1982 from a human patient in Tanzania and after several mouse passages cloned and adapted to axenic culture conditions, ((a) Baltz, T., D. Baltz, C. Giroud, and J. Crockett. EMBO Journal, 1985, 4:1273-1277. (b) Thuita, J. K., S. M. Karanja, T. Wenzler, R. E. Mdachi, J. M. Ngotho, J. M. Kagira, R. Tidwell, and R. Brun. Acta Tropica 2008, 108:6-10.) Minimum Essential Medium (50 μl) supplemented with 25 mM HEPES, 1 g/l additional glucose, 1% MEM non-essential amino acids (100×), 0.2 mM 2-mercaptoethanol, 1 mM Na-pyruvate and 15% heat inactivated horse serum was added to each well of a 96-well microtiter plate. Serial drug dilutions of seven 3-fold dilution steps covering a range from 90 to 0.123 μg/ml were prepared. Then 10^4 bloodstream forms of T. b. rhodesiense STIB 900 in 50 μl was added to each well and the plate incubated at 37° C. under a 5% CO2 atmosphere for 72 h. 10 μl Alamar Blue (resazurin, 12.5 mg in 100 ml double-distilled water) was then added to each well and incubation continued for a further 2-4 h, (Raz, B., M. Iten, Y. Grether-Buhler, R. Kaminsky, and R. Brun. Acta Trap 1997, 68:139-47.) Then the plates were read with a Spectramax Gemini XS microplate fluorometer (Molecular Devices Cooperation, Sunnyvale, Calif., USA) using an excitation wave length of 536 nm and an emission wave length of 588 nm. Data were analyzed using the microplate reader software Softmax Pro (Molecular Devices Cooperation, Sunnyvale, Calif., USA).

Assay [5] relates to L. infantum MHOM/MA(BE)/67 amastigotes in primary peritoneal mouse macrophages. The assay can be described thus: Leishmania infantum intracellular amastigote assay in mouse macrophages. The note with it: Macrophage, 120 h. How it is done:
Example 111. Leishmania infantum Intracellular Amastigote Assay in Mouse Macrophages
L. infantum MHOM/MA(BE)/67 amastigotes were collected from the spleen of an infected donor hamster and used to infect primary peritoneal mouse macrophages. (Kaiser, M., Maes, L., Tadoori, L. P., Spangenberg, T., Ioset, J.-R. J. Biomol. Screen. 2015 20(5), 634-35.) To determine in vitro antileishmanial activity, 3×10^4 macrophages were seeded in each well of a 96-well plate. Culture medium was RPMI-1640 supplemented with L-glutamine (20 mM), 16.5 mM sodium hydrogen carbonate, and 10% fetal calf serum (FCS). After 2 d of outgrowth, 5×10^5 amastigotes/well were added and incubated for 2 h at 37° C. Prediluted samples to be tested were subsequently added, and the plates were further incubated for 5 d at 37° C. and 5% CO2. Total parasite burdens in the well were microscopically assessed after Giemsa staining and expressed as a percentage of the total burden in the blank controls without compound. In treated wells with high amastigote burdens, an overall estimate of the total burden per well was made without discrimination between the number of infected macrophages and the number of amastigotes per infected cell. In treated wells with low burdens, exact counting was performed. The 50% inhibitory concentrations (IC50s) were then generated for each dose response test using GraphPad Prism (GraphPad Software Inc., San Diego, Calif.) using the nonlinear regression (sigmoidal dose-response/variable slope) equation.

Setting [6] is: bloodstream forms, Alamar Blue, protocol of Example 110, read-out: IC50: I Org. Growth T. brucei rhodesiense STIB 900, 3 d.
The mark [7] stands for this setting: amastigotes in primary peritoneal mouse macrophages, 5 d, Giemsa staining, read-out: Inhibition of Organism Growth in Leishmania infantum MHOM/MA/BE/67, 5 d.

`Cc1c(C(=O)Nc2ccc3c(c2)B(O)OC3C)nnn1-c1ccccc1` (stereo not shown) [Example 1, N-(1-hydroxy-1,3-dihydrobenzo[c][1,2]oxaborol-6-yl)-5-methyl-1-phenyl-1H-Example 11,2,3-triazole-4-carboxamide]: the IC50 in assay [1] is at most 1000 nM; in assay [2], under 600 nM.
The corresponding values for `Cc1c(C(=O)Nc2ccc3c(c2)B(O)OC3)nnn1C1CCC1` [Example 42, 1-cyclobutyl-N-(1-hydroxy-1,3-dihydrobenzo[c][1,2]oxaborol-6-yl)-5-methyl-1H-1,2,3-triazole-4-carboxamide] are 1100 to 9900 nM and 600 to 1000 nM.
Take `CCCc1c(C(=O)Nc2ccc3c(c2)B(O)OC3)nnn1-c1ccccn1` [Example 50, N-(1-hydroxy-1,3-dihydrobenzo[c][1,2]oxaborol-6-yl)-5-propyl-1-(pyridin-2-yl)-1H-1,2,3-triazole-4-carboxamide]: the IC50 in assay [3] is 100 to 300 nM; in assay [2] it was under 600 nM.
For the molecule `CC(C)c1c(C(=O)Nc2ccc3c(c2)B(O)OC3)nnn1-c1ccccn1` [Example 51, N-(1-hydroxy-1,3-dihydrobenzo[c][1,2]oxaborol-6-yl)-5-isopropyl-1-(pyridin-2-yl)-1H-1,2,3-triazole-4-carboxamide], the IC50 in assay [3] is 100 to 300 nM; in assay [2] it was 600 to 1000 nM.
As for `COCCc1c(C(=O)Nc2ccc3c(c2)B(O)OC3)nnn1-c1ccccn1` [Example 52, N-(1-hydroxy-1,3-dihydrobenzo[c][1,2]oxaborol-6-yl)-5-(2-methoxyethyl)-1-(pyridin-2-yl)-1H-1,2,3-triazole-4-carboxamide], the values for the IC50 in assay [3] and in assay [2] were 100 to 300 nM and 1100 to 10000 nM, respectively.
As to `Cn1c(C(=O)Nc2ccc3c(c2)B(O)OC3)nnc1-c1ccccn1` [Example 73, N-(1-hydroxy-1,3-dihydrobenzo[c][1,2]oxaborol-6-yl)-4-methyl-5-(pyridine-2-yl)-4H-1,2,4-triazole-3-carboxamide], the IC50 is 0.1 to 0.3 µM in assay [4] (setting [6]) and 3 to 19.9 µM in assay [5] (setting [7]).
Regarding `Cc1cccc(-c2nc(C(=O)Nc3ccc4c(c3)B(O)OC4)nn2C)n1` [Example 74, N-(1-hydroxy-1,3-dihydrobenzo[c][1,2]oxaborol-6-yl)-1-methyl-5-(6-methylpyridin-2-yl)-1H-1,2,4-triazole-3-carboxamide], the IC50 in assay [4] (setting [6]) was 0.1 to 0.3 µM; in assay [5] (setting [7]), under 3 µM.
As for `Cn1nc(C(=O)Nc2ccc3c(c2)B(O)OC3)nc1-c1cccnc1` [Example 78a, N-(1-hydroxy-1,3-dihydrobenzo[c][1,2]oxaborol-6-yl)-1-methyl-5-(pyridin-3-yl)-1H-1,2,4-triazole-3-carboxamide], the IC50 is 0.31 to 10 µM in assay [4] (read-out: IC50: I Org. Growth T. brucei rhodesiense STIB 900, 3 d [uM]) and 3 to 19.9 µM in assay [5] (read-out: Inhibition of Organism Growth in Leishmania infantum MHOM/MA/BE/67, 5 d [uM]).
